According to patent US10399940B2, “Substituted pyrrolidines and methods of use” (AbbVie S.à.r.l., priority 2016, dated 2019):
Read-outs that look alike come from different tables or passages of the source.

Biological target: T1, F508delCFTR (Homo sapiens, UniProt P13569, DEL508-508)
T1 construct: expressed in transfected cells; host or cells: CFBE41o- (human lung derived epithelial cell line), doxycycline-inducible expression
Experiment: Cell Surface Expression-Horse Radish Peroxidase (CSE-HRP) assay
Type: cell-based
Details: CFBE41o-F508delCFTR-HRP cells; for Maximum % activity (with co-corrector): with co-corrector (2 μM); for Maximum % activity (with co-corrector) / Maximum % activity (without co-corrector): normalized to on-plate positive control, highest concentration 20 μM
How it was run: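 Surface F508delCFTR-HRP was read by luminol luminescence after 18–24 h compound exposure at 33 °C, without or with 2 μM co-corrector. Doses were eight 3-fold steps from 20 μM, in doxycycline-induced (0.5 μg/mL, 72 h) CFBE41o- cells. % activity was scaled to the on-plate 2 μM positive control minus DMSO; EC50 came from a variable-slope sigmoid fit.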

[1] = test compound without co-corrector, 18-24 hours at 33° C., read-out: EC50 (without co-corrector)
[2] = with co-corrector (2 μM of 3-[(2R,4R)-4-({[1-(2,2-difluoro-1,3-benzodioxol-5-yl)cyclopropyl]carbonyl}amino)-7-methoxy-3,4-dihydro-2H-chromen-2-yl]benzoic acid), read-out: EC50 (with co-corrector)

T1 sequence (P13569 with tags, fused parts or gaps DEL508-508): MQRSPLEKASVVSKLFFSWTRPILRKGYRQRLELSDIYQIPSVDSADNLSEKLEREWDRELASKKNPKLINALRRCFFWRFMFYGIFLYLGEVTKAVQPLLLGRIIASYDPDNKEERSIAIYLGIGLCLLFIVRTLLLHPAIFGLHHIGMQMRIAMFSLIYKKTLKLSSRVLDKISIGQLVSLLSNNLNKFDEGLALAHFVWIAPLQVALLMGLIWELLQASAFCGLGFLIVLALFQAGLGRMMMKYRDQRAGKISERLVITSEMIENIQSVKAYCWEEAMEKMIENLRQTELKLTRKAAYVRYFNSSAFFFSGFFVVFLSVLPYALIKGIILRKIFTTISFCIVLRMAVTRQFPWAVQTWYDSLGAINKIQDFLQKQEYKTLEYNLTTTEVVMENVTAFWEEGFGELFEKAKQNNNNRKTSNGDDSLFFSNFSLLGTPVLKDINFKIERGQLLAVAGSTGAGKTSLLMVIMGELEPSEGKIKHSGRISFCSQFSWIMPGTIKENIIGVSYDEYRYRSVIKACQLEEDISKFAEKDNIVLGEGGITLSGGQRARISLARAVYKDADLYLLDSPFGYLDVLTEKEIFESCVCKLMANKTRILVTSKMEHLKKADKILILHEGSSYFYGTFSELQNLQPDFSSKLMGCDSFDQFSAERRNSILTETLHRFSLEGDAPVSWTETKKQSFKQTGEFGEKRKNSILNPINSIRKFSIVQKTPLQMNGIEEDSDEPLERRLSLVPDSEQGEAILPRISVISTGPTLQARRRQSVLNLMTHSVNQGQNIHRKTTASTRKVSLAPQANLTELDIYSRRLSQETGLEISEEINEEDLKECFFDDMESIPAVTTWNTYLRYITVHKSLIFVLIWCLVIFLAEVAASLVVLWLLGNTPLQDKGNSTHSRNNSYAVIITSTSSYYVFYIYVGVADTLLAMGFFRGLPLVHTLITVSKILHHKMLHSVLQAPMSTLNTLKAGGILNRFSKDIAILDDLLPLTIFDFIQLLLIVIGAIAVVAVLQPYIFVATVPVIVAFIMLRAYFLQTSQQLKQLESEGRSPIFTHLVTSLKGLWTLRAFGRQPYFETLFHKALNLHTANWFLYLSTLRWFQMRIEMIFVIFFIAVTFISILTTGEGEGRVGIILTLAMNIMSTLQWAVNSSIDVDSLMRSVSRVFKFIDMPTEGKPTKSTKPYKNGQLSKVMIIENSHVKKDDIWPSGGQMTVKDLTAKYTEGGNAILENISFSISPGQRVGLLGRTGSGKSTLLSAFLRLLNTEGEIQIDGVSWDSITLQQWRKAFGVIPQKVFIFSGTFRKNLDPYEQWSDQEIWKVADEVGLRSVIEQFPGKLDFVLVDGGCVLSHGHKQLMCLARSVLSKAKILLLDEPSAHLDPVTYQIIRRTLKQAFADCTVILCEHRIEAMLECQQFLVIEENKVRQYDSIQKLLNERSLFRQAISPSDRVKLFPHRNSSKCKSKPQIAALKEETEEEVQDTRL

SMILES | EC50 [1] [nM] | EC50 [2] [nM] | Maximum % activity (with co-corrector) | Maximum % activity (without co-corrector)
COc1cc(C(F)(F)F)ccc1CO[C@H]1[C@H](C(C)(C)C)[C@@H](C(=O)O)N(C(=O)[C@@H]2CCCCO2)[C@H]1c1ccccc1C [Example 175, (2S,3R,4S,5S)-3-tert-butyl-4-{[2-methoxy-4-(trifluoromethyl)phenyl]methoxy}-5-(2-methylphenyl)-1-[(2S)-oxane-2-carbonyl]pyrrolidine-2-carboxylic acid] | 1000 to 10000 | < 1000 | +++ (≥350) | +++ (≥200)
COc1ncc(C2CCC2)cc1CO[C@H]1[C@H](C(C)(C)C)[C@@H](C(=O)O)N(C(=O)[C@@H]2CCCCO2)[C@H]1c1ccccc1C(C)C [Example 176, (2S,3R,4S,5S)-3-tert-butyl-4-[(5-cyclobutyl-2-methoxypyridin-3-yl)methoxy]-1-[(2S)-oxane-2-carbonyl]-5-[2-(propan-2-yl)phenyl]pyrrolidine-2-carboxylic acid] | 1000 to 10000 | < 1000 | +++ (≥350) | +++ (≥200)
COc1ncc(C(F)(F)F)cc1CO[C@H]1[C@H](C(C)(C)C)[C@@H](C(=O)O)N(C(=O)[C@@H]2CCCCO2)[C@H]1c1ccccc1Br [Example 178, (2S,3R,4S,5S)-5-(2-bromophenyl)-3-tert-butyl-4-{[2-methoxy-5-(trifluoromethyl)pyridin-3-yl]methoxy}-1-[(2S)-oxane-2-carbonyl]pyrrolidine-2-carboxylic acid] | 1000 to 10000 | 1000 to 10000 | +++ (≥350) | ++ (≥100 and <200)
CCc1ccccc1[C@H]1[C@@H](OCc2cc(C(F)(F)F)cnc2OC)[C@H](C(C)(C)C)[C@@H](C(=O)O)N1C(=O)[C@@H]1CCCCO1 [Example 179, (2S,3R,4S,5S)-3-tert-butyl-5-(2-ethylphenyl)-4-{[2-methoxy-5-(trifluoromethyl)pyridin-3-yl]methoxy}-1-[(2S)-oxane-2-carbonyl]pyrrolidine-2-carboxylic acid] | < 1000 | < 1000 | +++ (≥350) | +++ (≥200)
COc1ncc(C(F)(F)F)cc1CO[C@H]1[C@H](C(C)(C)C)[C@@H](C(=O)O)N(C(=O)[C@@H]2CCCCO2)[C@H]1c1ccccc1-c1ccccc1 [Example 180, (2S,3R,4S,5S)-5-([1,1′-biphenyl]-2-yl)-3-tert-butyl-4-{[2-methoxy-5-(trifluoromethyl)pyridin-3-yl]methoxy}-1-[(2S)-oxane-2-carbonyl]pyrrolidine-2-carboxylic acid] | < 1000 | < 1000 | +++ (≥350) | +++ (≥200)
COc1ncc(C(F)(F)F)cc1CO[C@H]1[C@H](C(C)(C)C)[C@@H](C(=O)O)N(C(=O)[C@@H]2CCCCO2)[C@H]1c1ccccc1-c1ccc(=O)n(C)c1 [Example 181, (2S,3R,4S,5S)-3-tert-butyl-4-{[2-methoxy-5-(trifluoromethyl)pyridin-3-yl]methoxy}-5-[2-(1-methyl-6-oxo-1,6-dihydropyridin-3-yl)phenyl]-1-[(2S)-oxane-2-carbonyl]pyrrolidine-2-carboxylic acid] | > 10000 | 1000 to 10000 | ++ (≥150 and <350) | + (<100)
COc1ncc(C2CCC2)cc1CO[C@H]1[C@H](C(C)(C)C)[C@@H](C(=O)O)N(C(=O)C2CCCCC2)[C@H]1c1ccccc1C1CC1 [Example 182, (2S,3R,4S,5S)-3-tert-butyl-4-[(5-cyclobutyl-2-methoxypyridin-3-yl)methoxy]-1-(cyclohexanecarbonyl)-5-(2-cyclopropylphenyl)pyrrolidine-2-carboxylic acid] | 1000 to 10000 | < 1000 | +++ (≥350) | +++ (≥200)
COc1ncc(C2CCC2)cc1CO[C@H]1[C@H](C(C)(C)C)[C@@H](C(=O)O)N(C(=O)C2CCCCC2)[C@H]1c1ccccc1Br [Example 183, (2S,3R,4S,5S)-5-(2-bromophenyl)-3-tert-butyl-4-[(5-cyclobutyl-2-methoxypyridin-3-yl)methoxy]-1-(cyclohexanecarbonyl)pyrrolidine-2-carboxylic acid] | 1000 to 10000 | 1000 to 10000 | +++ (≥350) | ++ (≥100 and <200)
CCc1ccccc1[C@H]1[C@@H](OCc2ccc(C(F)(F)F)cc2OC)[C@H](C(C)(C)C)[C@@H](C(=O)O)N1C(=O)[C@@H]1CCCCO1 [Example 184, (2S,3R,4S,5S)-3-tert-butyl-5-(2-ethylphenyl)-4-{[2-methoxy-4-(trifluoromethyl)phenyl]methoxy}-1-[(2S)-oxane-2-carbonyl]pyrrolidine-2-carboxylic acid] | < 1000 | < 1000 | +++ (≥350) | +++ (≥200)
CCc1ccccc1[C@H]1[C@@H](OCc2cc(C3CCC3)cnc2OC)[C@H](C(C)(C)C)[C@@H](C(=O)O)N1C(=O)[C@@H]1CCCCO1 [Example 185, (2S,3R,4S,5S)-3-tert-butyl-4-[(5-cyclobutyl-2-methoxypyridin-3-yl)methoxy]-5-(2-ethylphenyl)-1-[(2S)-oxane-2-carbonyl]pyrrolidine-2-carboxylic acid] | 1000 to 10000 | < 1000 | +++ (≥350) | +++ (≥200)
COc1ccc(C(C)(C)C#N)cc1CO[C@H]1[C@H](C(C)(C)C)[C@@H](C(=O)O)N(C(=O)[C@@H]2CCCCO2)[C@H]1c1ccccc1C [Example 187, (2S,3R,4S,5S)-3-tert-butyl-4-{[5-(2-cyanopropan-2-yl)-2-methoxyphenyl]methoxy}-5-(2-methylphenyl)-1-[(2S)-oxane-2-carbonyl]pyrrolidine-2-carboxylic acid] | 1000 to 10000 | < 1000 | +++ (≥350) | +++ (≥200)
COc1ccc(C(C)(C)C)cc1CO[C@H]1[C@H](C(C)(C)C)[C@@H](C(=O)O)N(C(=O)[C@@H]2CCCCO2)[C@H]1c1ccccc1C [Example 188, (2S,3R,4S,5S)-3-tert-butyl-4-[(5-tert-butyl-2-methoxyphenyl)methoxy]-5-(2-methylphenyl)-1-[(2S)-oxane-2-carbonyl]pyrrolidine-2-carboxylic acid] | < 1000 | < 1000 | +++ (≥350) | +++ (≥200)
COc1nc2ccccc2cc1CO[C@H]1[C@H](C(C)(C)C)[C@@H](C(=O)O)N(C(=O)[C@@H]2CCCCO2)[C@H]1c1ccccc1C [Example 189, (2S,3R,4S,5S)-3-tert-butyl-4-[(2-methoxyquinolin-3-yl)methoxy]-5-(2-methylphenyl)-1-[(2S)-oxane-2-carbonyl]pyrrolidine-2-carboxylic acid] | 1000 to 10000 | 1000 to 10000 | +++ (≥350) | +++ (≥200)
COc1ncc(C(F)(F)F)cc1CO[C@H]1[C@H](C(C)(C)C)[C@@H](C(=O)O)N(C(=O)[C@@H]2CCCCO2)[C@H]1c1ccccc1-c1ccc(F)cc1 [Example 190, (2S,3R,4S,5S)-3-tert-butyl-5-(4′-fluoro[1,1′-biphenyl]-2-yl)-4-{[2-methoxy-5-(trifluoromethyl)pyridin-3-yl]methoxy}-1-[(2S)-oxane-2-carbonyl]pyrrolidine-2-carboxylic acid] | 1000 to 10000 | 1000 to 10000 | +++ (≥350) | +++ (≥200)
COc1ncc(C(F)(F)F)cc1CO[C@H]1[C@H](C(C)(C)C)[C@@H](C(=O)O)N(C(=O)[C@@H]2CCCCO2)[C@H]1c1ccccc1-c1cccc(Cl)c1 [Example 191, (2S,3R,4S,5S)-3-tert-butyl-5-(3′-chloro[1,1′-biphenyl]-2-yl)-4-{[2-methoxy-5-(trifluoromethyl)pyridin-3-yl]methoxy}-1-[(2S)-oxane-2-carbonyl]pyrrolidine-2-carboxylic acid] | 1000 to 10000 | 1000 to 10000 | +++ (≥350) | +++ (≥200)
COc1ncc(C(F)(F)F)cc1CO[C@H]1[C@H](C(C)(C)C)[C@@H](C(=O)O)N(C(=O)[C@@H]2CCCCO2)[C@H]1c1ccccc1C1=CCN(C)CC1 [Example 192, (2S,3R,4S,5S)-3-tert-butyl-4-{[2-methoxy-5-(trifluoromethyl)pyridin-3-yl]methoxy}-5-[2-(1-methyl-1,2,3,6-tetrahydropyridin-4-yl)phenyl]-1-[(2S)-oxane-2-carbonyl]pyrrolidine-2-carboxylic acid] | 1000 to 10000 | 1000 to 10000 | ++ (≥150 and <350) | + (<100)
COc1ncc(C(F)(F)F)cc1CO[C@H]1[C@H](C(C)(C)C)[C@@H](C(=O)O)N(C(=O)[C@@H]2CCCCO2)[C@H]1c1ccccc1-c1cnn(C)c1 [Example 193, (2S,3R,4S,5S)-3-tert-butyl-4-{[2-methoxy-5-(trifluoromethyl)pyridin-3-yl]methoxy}-5-[2-(1-methyl-1H-pyrazol-4-yl)phenyl]-1-[(2S)-oxane-2-carbonyl]pyrrolidine-2-carboxylic acid] | 1000 to 10000 | 1000 to 10000 | +++ (≥350) | ++ (≥100 and <200)
